This assay concerns the target T1, Ubiquitin carboxyl-terminal hydrolase 30 (Homo sapiens, UniProt Q70CQ3).
T1 sequence (Q70CQ3 whole entry): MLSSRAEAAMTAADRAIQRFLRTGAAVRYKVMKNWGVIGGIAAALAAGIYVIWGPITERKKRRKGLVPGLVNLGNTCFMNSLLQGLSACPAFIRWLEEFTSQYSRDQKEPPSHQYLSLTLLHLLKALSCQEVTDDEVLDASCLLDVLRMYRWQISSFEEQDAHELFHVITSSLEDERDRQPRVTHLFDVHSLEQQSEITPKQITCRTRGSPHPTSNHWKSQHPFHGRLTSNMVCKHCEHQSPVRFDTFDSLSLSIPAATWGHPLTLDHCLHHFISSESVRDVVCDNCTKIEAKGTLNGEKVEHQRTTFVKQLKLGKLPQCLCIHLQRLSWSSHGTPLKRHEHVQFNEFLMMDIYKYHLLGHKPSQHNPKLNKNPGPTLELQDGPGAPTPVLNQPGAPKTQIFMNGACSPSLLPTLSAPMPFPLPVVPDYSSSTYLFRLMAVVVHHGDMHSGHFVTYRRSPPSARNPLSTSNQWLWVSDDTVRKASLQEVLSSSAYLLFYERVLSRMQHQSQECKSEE
In words: USP30 Biochemical IC50 Assay. The method, then: Dilution plates were prepared at 21 times the final concentration (2100 µM for a final concentration of 100 µM) in 50% DMSO in a 96-well polypropylene V-bottom plate (Greiner #651201). A typical 8-point dilution series would be 100, 30, 10, 3, 1, 0.3, 0.1, 0.03 µM final. Reactions were performed in duplicate in black 384 well plates (small volume, Greiner 784076) in a final reaction volume of 21 µl. Either 1 µl of 50% DMSO or diluted compound was added to the plate. USP30 (Boston Biochem #E582) was diluted in reaction buffer (40 mM Tris, pH 7.5, 0.005% Tween 20, 0.5 mg/ml BSA, 5 mM beta-mercaptoethanol) to achieve a final assay concentration of 4 nM, and 10 µl of diluted USP30 was added to the compound. Enzyme and compound were incubated for 30 min at room temp. Reactions were initiated by the addition of 50 nM of TAMRA labelled peptide linked to ubiquitin via an iso-peptide bond as fluorescence polarisation substrate. Reactions were read immediately after addition of substrate and following a 2-hour incubation at room temperature. Readings were performed on a Pherastar Plus (BMG Labtech). λ Excitation 540 nm; λ Emission 590 nm.

Each structure is given as a SMILES string.

Usually IC50 stands for the midpoint of a concentration-inhibition curve. High values mean lower potency, low ones higher potency.

Molecule `C[C@@H]1C[C@@H](NC(=O)c2ncc(-c3cc(C#N)ccc3OC3CC3)o2)CN1C#N` [US20230303547, Example 1] gave an IC50 of 3 nM. The molecule `COC[C@@H]1C[C@@H](NC(=O)c2ncc(-c3cc(C#N)ccc3OC3CC3)o2)CN1C#N` [US20230303547, Example 2] had an IC50 of 3 nM. The same measure for `N#Cc1ccc(OC2CC2)c(-c2cnc(C(=O)N[C@@H]3C[C@@H](CF)N(C#N)C3)o2)c1` [US20230303547, Example 3]: 1 nM; for `COc1ccc(C#N)cc1-c1cnc(C(=O)N[C@@H]2C[C@@H](C)N(C#N)C2)o1` [US20230303547, Example 4]: 2 nM.

For the origin of these results see BindingDB's records for patent US20230303547 (Mission Therapeutics, 2023).
